# Legend:
# [1] = vaping study with 10 subjects rating throat feel and head feel dynamics; assay type: in vivo, human
# Source text: In rating the head feel dynamics and throat feel of the different compositions, the subjects used the following criteria: […]
# α7 nAChRs = α7 nAChRs (Homo sapiens, UniProt P36544); assay type: cell-based
# α4β2 nAChRs = α4β2 nAChRs (Homo sapiens, UniProt P17787+P43681); assay type: cell-based
# Chain of α4β2 nAChRs (P43681 29-627 limits assumed): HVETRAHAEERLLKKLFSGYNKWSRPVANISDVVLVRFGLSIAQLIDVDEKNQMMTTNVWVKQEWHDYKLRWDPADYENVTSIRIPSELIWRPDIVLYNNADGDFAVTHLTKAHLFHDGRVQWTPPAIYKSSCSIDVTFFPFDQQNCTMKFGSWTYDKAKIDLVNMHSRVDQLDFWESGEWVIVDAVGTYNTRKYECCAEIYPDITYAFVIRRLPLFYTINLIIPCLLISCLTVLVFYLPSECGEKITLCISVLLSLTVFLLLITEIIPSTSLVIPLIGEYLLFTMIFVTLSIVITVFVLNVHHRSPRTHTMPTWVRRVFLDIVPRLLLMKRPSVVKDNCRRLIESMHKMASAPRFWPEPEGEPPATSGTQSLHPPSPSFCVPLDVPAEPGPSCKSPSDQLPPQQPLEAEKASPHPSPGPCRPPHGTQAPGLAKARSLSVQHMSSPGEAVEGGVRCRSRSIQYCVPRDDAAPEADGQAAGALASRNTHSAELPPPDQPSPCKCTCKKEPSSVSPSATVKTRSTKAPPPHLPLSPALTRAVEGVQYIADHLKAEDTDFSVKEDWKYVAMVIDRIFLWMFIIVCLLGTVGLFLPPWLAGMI
# Chain of α4β2 nAChRs (P17787 26-502): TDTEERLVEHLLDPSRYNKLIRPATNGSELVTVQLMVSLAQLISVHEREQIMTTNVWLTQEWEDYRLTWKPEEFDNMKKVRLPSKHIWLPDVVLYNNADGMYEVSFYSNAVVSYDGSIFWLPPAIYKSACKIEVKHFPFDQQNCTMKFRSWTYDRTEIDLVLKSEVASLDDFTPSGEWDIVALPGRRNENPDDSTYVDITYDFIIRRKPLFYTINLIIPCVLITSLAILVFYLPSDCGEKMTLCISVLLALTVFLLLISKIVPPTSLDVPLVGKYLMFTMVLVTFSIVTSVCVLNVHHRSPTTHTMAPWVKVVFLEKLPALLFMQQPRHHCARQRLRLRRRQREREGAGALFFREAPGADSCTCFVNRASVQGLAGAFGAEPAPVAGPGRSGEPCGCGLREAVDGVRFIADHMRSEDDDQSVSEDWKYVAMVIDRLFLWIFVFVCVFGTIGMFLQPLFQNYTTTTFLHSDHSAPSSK
# Chain of α7 nAChRs (P36544 23-502): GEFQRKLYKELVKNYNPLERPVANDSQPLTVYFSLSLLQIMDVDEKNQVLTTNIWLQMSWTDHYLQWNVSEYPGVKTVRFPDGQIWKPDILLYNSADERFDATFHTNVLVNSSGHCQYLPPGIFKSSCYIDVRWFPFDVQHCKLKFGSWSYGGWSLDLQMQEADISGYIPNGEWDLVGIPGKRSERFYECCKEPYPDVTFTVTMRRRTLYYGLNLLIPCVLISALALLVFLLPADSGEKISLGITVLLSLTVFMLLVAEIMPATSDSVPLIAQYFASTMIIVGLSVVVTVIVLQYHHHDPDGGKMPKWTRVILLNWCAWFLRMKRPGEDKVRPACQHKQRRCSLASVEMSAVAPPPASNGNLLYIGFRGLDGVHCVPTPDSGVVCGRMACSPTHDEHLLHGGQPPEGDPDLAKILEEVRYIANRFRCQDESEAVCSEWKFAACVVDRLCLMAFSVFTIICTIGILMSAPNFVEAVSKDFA
Compound,Head Feel Dynamics compared with tobacco-derived counterpart ([1]; 0.3% loading level),Head Feel Dynamics compared with tobacco-derived counterpart ([1]; 0.6% loading level),agonist character in words (α7 nAChRs),agonist character in words (α4β2 nAChRs)
"CN1CCCC1c1cccnc1 (racemic) [Synthetic RS racemic nicotine, RS-Nicotine]",slightly less effect,slightly less effect,–,–
"CN1CCC[C@H]1c1cccnc1 [Synthetic S nicotine, S-nicotine]",same (within experimental error),same (within experimental error),–,–
"CN1CCC[C@@H]1c1cccnc1 [Synthetic R nicotine, R nicotine]",–,–,"full, weak agonist",partial agonist

# Source: patent publication US20170112182A1 (Next Generation Labs, LLC, priority 2015, published 2017)
